Measurements as given in patent US11149011B2, “Compounds and methods for IDO and TDO modulation, and indications therefor” (Plexxikon Inc., priority 2018, dated 2021).
pIC50: −log10 of the molar value. Like-named read-outs stand apart in the source and are kept apart here.

Assays:
IDO1 = biological target: T1, IDO1 (Homo sapiens, UniProt P14902); experiment: IDO enzymatic assay; assay type: biochemical; conditions: for IC50: geometric mean, read-out: IDO1 GMean: IC50 (μM) (Biochemical Assay)
T1 construct: His tag (N); made in house; host or cells: E. coli
Experimental: (§1) Human IDO or TDO with N-terminal His tag is purified in E. coli. The IDO enzymatic assay is performed using 6 nM IDO and 10 μM L-Trp in the presence of 10 mM ascorbic acid, 5 μM methylene blue, 100 nM catalase and 0.01% Tween 20 in 50 mM sodium phosphate buffer (pH 6.5). 19 μL of above reaction mixture is added to wells of 384 well reaction plate containing 1 μL of various concentrations of test compound or DMSO vehicle and incubated for 20 minutes at room temperature. The TDO enzymatic reaction assay is performed using 1 nM TDO and 350 μM L-Trp in the presence of 10 mM ascorbic acid, 0.4 μM methylene blue, 100 nM catalase and 0.01% Tween 20 in 50 mM sodium phosphate buffer (pH 6.5). 19 μL of above reaction mixture is added to wells of 384 well reaction plate containing 1 μL of various concentrations of test compound or DMSO vehicle and incubated for 70 minutes at room temperature. 16 wells containing all the components of reaction mixture and 5% DMSO serve as high control. 16 well containing all the components except enzyme of reaction mixture and 5% DMSO serves as low control. Both IDO and TDO enzymatic reactions are stopped by addition of 4 μL of 30% TCA and incubated 30 minutes at 50° C. to hydrolyze N-formylkynurenine produced by IDO or TDO to kynurenine. Upon measuring the kynurenine level, the percentage inhibition is calculated at individual concentrations relative to high and low controls. The data is analyzed by using nonlinear regression to generate IC50 values.

TDO = biological target: T2, TDO (Homo sapiens, UniProt P48775); experiment: TDO enzymatic assay; conditions: geometric mean; read-out: TDO GMean: IC50 (μM) (Biochemical Assay)
T2 construct: His tag (N); made in house; host or cells: E. coli
Experimental: as §1

[1] = biological target: T3, IDO1-expressing HEK293 cell clones (Homo sapiens, UniProt P14902); experiment: Cell based kynurenine assay, IDO1-expressing HEK293 cell clones; conditions: for IC50: HEK293 cells, 24 hours of incubation, geometric mean, read-out: HEK293 IDO1 Kynurenine GMean IC50 (μM) (Cellular Assay); for pIC50: comparative examples 4,6 vs 5,7 indazole, cellular potency, read-out: hIDO1
T3 construct: expressed in transfected cells; host or cells: HEK293
Experimental: (§2) IDO1-expressing or TDO-expressing HEK293 cell clones are generated upon stable transfection of plasmids expressing human IDO or human TDO under the control of CMV promoter. Cells are selected in DMEM media supplemented with 10% fetal bovine serum and 1 mg/ml G418 at 37° C. in a humidified incubator supplied with 5% CO2. The assays are performed as follows.
(§3) Cells were seeded in a 96 well plate in 50 μL of culture media at a density of 2.5×10^4 per well. Serial dilutions of compounds (in total volume of 50 μL culture media) are added into cells. 4 wells containing 0.2% DMSO treated cells serve as high controls and 4 wells containing media only with 0.2% DMSO serve as low controls. After 24 hours of incubation, the supernatant was transferred to a 384 well reaction plate and the kynurenine level determined. The percentage inhibition at individual concentrations relative to high and low controls is calculated. The data is analyzed by using nonlinear regression to generate IC50 values.

[2] = biological target: T4, TDO-expressing HEK293 cell clones (Homo sapiens, UniProt P48775); experiment: Cell based kynurenine assay, TDO-expressing HEK293 cell clones; conditions: HEK293 cells, 24 hours of incubation, geometric mean; read-out: HEK293 TDO Kynurenine GMean IC50 (μM) (Cellular Assay)
T4 construct: expressed in transfected cells; host or cells: HEK293
Experimental: as §2, §3

T2 sequence (P48775 whole entry): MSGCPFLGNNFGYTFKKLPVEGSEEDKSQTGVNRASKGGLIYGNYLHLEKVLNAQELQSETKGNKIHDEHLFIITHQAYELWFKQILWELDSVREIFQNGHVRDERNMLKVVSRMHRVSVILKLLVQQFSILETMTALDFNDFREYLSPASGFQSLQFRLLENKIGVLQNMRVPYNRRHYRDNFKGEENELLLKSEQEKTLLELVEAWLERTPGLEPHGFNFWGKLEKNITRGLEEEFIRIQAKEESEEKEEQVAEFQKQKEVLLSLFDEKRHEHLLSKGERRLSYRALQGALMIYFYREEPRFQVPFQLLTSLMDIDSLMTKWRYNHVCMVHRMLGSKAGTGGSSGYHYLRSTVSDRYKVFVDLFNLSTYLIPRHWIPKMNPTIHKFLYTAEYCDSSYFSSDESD
T4 sequence (P48775 whole entry): as above
T3 sequence (P14902 whole entry): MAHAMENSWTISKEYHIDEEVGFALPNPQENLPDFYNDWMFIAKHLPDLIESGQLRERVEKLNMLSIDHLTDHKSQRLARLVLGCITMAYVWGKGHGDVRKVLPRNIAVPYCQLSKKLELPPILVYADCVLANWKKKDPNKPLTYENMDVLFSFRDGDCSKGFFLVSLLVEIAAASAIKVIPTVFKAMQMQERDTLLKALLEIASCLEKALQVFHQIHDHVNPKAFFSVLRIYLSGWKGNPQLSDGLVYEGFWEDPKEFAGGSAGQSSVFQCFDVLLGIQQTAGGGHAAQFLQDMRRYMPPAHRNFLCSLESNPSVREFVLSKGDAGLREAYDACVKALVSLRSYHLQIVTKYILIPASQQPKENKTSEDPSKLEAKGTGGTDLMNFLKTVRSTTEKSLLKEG
T1 sequence (P14902 whole entry): as above

| IC50 (IDO1) | IC50 (TDO) | IC50 [1] | IC50 [2] | pIC50 [1] | pIC50 (IDO1; comparative examples 4,6 vs 5,7 indazole, biochemical potency, read-out: IDO1) | SMILES |
| --- | --- | --- | --- | --- | --- | --- |
| 0.0001 to 10 µM | 0.0001 to 10 µM | 0.0001 to 10 µM | 0.0001 to 10 µM | – | – | CC(C)(C1CCN(C(=O)NCC2CC2)CC1)C(O)c1cc(Cl)cc2[nH]ncc12 (stereo not drawn) [Compound P-0080, 4-(1-(6-chloro-1H-indazol-4-yl)-1-hydroxy-2-methylpropan-2-yl)-N-(cyclopropylmethyl)piperidine-1-carboxamide] |
| – | – | – | – | ≤ 5.00 | – | OC1(c2cc(Cl)cc3[nH]ncc23)CC2(CCC2)C1 |
| 0.0001 to 10 µM | 0.0001 to 10 µM | 0.0001 to 10 µM | 0.0001 to 10 µM | – | – | CC(C)(C1CCN(C(=O)NCCC#N)CC1)[C@H](O)c1cc(Cl)cc2cn[nH]c12 [Compound P-0030, (S)-4-(1-(5-chloro-1H-indazol-7-yl)-1-hydroxy-2-methylpropan-2-yl)-N-(2-cyanoethyl)piperidine-1-carboxamide] |
| 0.0001 to 10 µM | 0.0001 to 10 µM | 0.0001 to 10 µM | 0.0001 to 10 µM | – | – | O=C(NC1CCC(F)(F)CC1)N1CCC(C(F)(F)C(=O)c2c(F)c(Cl)cc3cn[nH]c23)CC1 [Compound P-0041, 4-(2-(5-chloro-6-fluoro-1H-indazol-7-yl)-1,1-difluoro-2-oxoethyl)-N-(4,4-difluorocyclohexyl)piperidine-1-carboxamide] |
| 0.0001 to 10 µM | 0.0001 to 10 µM | 0.0001 to 10 µM | 0.0001 to 10 µM | – | – | CC(C)(C1CCN(C(=O)C2CCOCC2)CC1)C(O)c1cc(Cl)cc2[nH]ncc12 (stereo not drawn) [Compound P-0048, (4-(1-(6-chloro-1H-indazol-4-yl)-1-hydroxy-2-methylpropan-2-yl)piperidin-1-yl)(tetrahydro-2H-pyran-4-yl)methanone] |
| 0.0001 to 10 µM | 0.0001 to 10 µM | 0.0001 to 10 µM | 0.0001 to 10 µM | – | – | CC(C)(C1CCN(C(=O)NC[C@H]2CCCO2)CC1)C(O)c1cc(Cl)cc2[nH]ncc12 (stereo partly drawn) [Compound P-0115, 4-(1-(6-chloro-1H-indazol-4-yl)-1-hydroxy-2-methylpropan-2-yl)-N-(((R)-tetrahydrofuran-2-yl)methyl)piperidine-1-carboxamide] |
| 0.0001 to 10 µM | 0.0001 to 10 µM | 0.0001 to 10 µM | 0.0001 to 10 µM | – | – | CC(C)(C1CCN(C(=O)NC2CCC(F)(F)CC2)CC1)C(O)c1cc(Cl)cc2[nH]ncc12 (stereo not drawn) [Compound P-0112, 4-(1-(6-chloro-1H-indazol-4-yl)-1-hydroxy-2-methylpropan-2-yl)-N-(4,4-difluorocyclohexyl)piperidine-1-carboxamide] |
| 0.0001 to 10 µM | 0.0001 to 10 µM | 0.0001 to 10 µM | 0.0001 to 10 µM | – | – | COCC(=O)N1CCC(C(C)(C)C(O)c2cc(Cl)cc3[nH]ncc23)CC1 (stereo not drawn) [Compound P-0049, 1-(4-(1-(6-chloro-1H-indazol-4-yl)-1-hydroxy-2-methylpropan-2-yl)piperidin-1-yl)-2-methoxyethan-1-one] |
| 0.0001 to 10 µM | 0.0001 to 10 µM | 0.0001 to 10 µM | 0.0001 to 10 µM | – | – | C[C@@H](O)C(=O)N1CCC(C(C)(C)[C@H](O)c2cc(Cl)cc3cn[nH]c23)CC1 [Compound P-0131, (R)-1-(4-((S)-1-(5-chloro-1H-indazol-7-yl)-1-hydroxy-2-methylpropan-2-yl)piperidin-1-yl)-2-hydroxypropan-1-one] |
| 0.0001 to 10 µM | 0.0001 to 10 µM | 0.0001 to 10 µM | 0.0001 to 10 µM | – | – | CCCC(=O)N1CCC(C(C)(C)C(O)c2cc(Cl)cc3[nH]ncc23)CC1 (stereo not drawn) [Compound P-0045, 1-(4-(1-(6-chloro-1H-indazol-4-yl)-1-hydroxy-2-methylpropan-2-yl)piperidin-1-yl)butan-1-one] |
| 0.0001 to 10 µM | 0.0001 to 10 µM | 0.0001 to 10 µM | 0.0001 to 10 µM | – | – | CNC(=O)CNC(=O)N1CCC(C(C)(C)C(O)c2cc(Cl)cc3[nH]ncc23)CC1 (stereo not drawn) [Compound P-0089, 4-(1-(6-chloro-1H-indazol-4-yl)-1-hydroxy-2-methylpropan-2-yl)-N-(2-(methylamino)-2-oxoethyl)piperidine-1-carboxamide] |
| 0.0001 to 10 µM | – | – | – | – | – | OC1(c2cc(Cl)cc3cn[nH]c23)CC2(CCNCC2)C1 [Compound P-0014, 2-(5-chloro-1H-indazol-7-yl)-7-azaspiro[3.5]nonan-2-ol] |
| 0.0001 to 10 µM | 0.0001 to 10 µM | – | 0.0001 to 10 µM | – | – | CC(C)(C)OC(=O)N1CCC2(CC1)CC(O)(c1cc(Cl)cc3cn[nH]c13)C2 [Compound P-0013, tert-butyl 2-(5-chloro-1H-indazol-7-yl)-2-hydroxy-7-azaspiro[3.5]nonane-7-carboxylate] |
| 0.0001 to 10 µM | 0.0001 to 10 µM | – | 0.0001 to 10 µM | – | – | CS(=O)(=O)N1CC(O)(c2cc(Cl)cc3cn[nH]c23)C1 [Compound P-0018, 3-(5-chloro-1H-indazol-7-yl)-1-(methylsulfonyl)azetidin-3-ol] |
| 0.0001 to 10 µM | 0.0001 to 10 µM | – | 0.0001 to 10 µM | – | – | OC1(c2cc(Cl)cc3cn[nH]c23)CC2(CC2)C1 [Compound P-0011, 5-(5-chloro-1H-indazol-7-yl)spiro[2.3]hexan-5-ol] |
| – | – | – | > 10 µM | – | – | CC(=O)N1CCC(C(F)(F)C(O)c2c(F)c(Cl)cc3cn[nH]c23)CC1 (stereo not drawn) [Compound P-0056, 1-(4-(2-(5-chloro-6-fluoro-1H-indazol-7-yl)-1,1-difluoro-2-hydroxyethyl)piperidin-1-yl)ethan-1-one] |
| 0.0001 to 10 µM | 0.0001 to 10 µM | – | 0.0001 to 10 µM | – | – | O=S1(=O)CC2(CC(O)(c3cc(Cl)cc4cn[nH]c34)C2)C1 [Compound P-0057, 6-(5-chloro-1H-indazol-7-yl)-6-hydroxy-2-thiaspiro[3.3]heptane 2,2-dioxide] |
| 0.0001 to 10 µM | 0.0001 to 10 µM | – | 0.0001 to 10 µM | – | – | CS(=O)(=O)N1CCC(O)(c2cc(Cl)cc3cn[nH]c23)CC1 [Compound P-0017, 4-(5-chloro-1H-indazol-7-yl)-1-(methylsulfonyl)piperidin-4-ol] |
| – | – | 0.0001 to 10 µM | > 10 µM | – | – | CC(C)(C1CCN(C(=O)[C@@H]2CCNC2)CC1)[C@H](O)c1cc(Cl)cc2cn[nH]c12 [Compound P-0140, (4-((S)-1-(5-chloro-1H-indazol-7-yl)-1-hydroxy-2-methylpropan-2-yl)piperidin-1-yl)((R)-1λ^2-pyrrolidin-3-yl)methanone] |
| – | – | 0.0001 to 10 µM | 0.0001 to 10 µM | – | – | CC(C)(C1CCN(C(=O)[C@H]2CCCN2)CC1)[C@H](O)c1cc(Cl)cc2cn[nH]c12 [Compound P-0139, (4-((S)-1-(5-chloro-1H-indazol-7-yl)-1-hydroxy-2-methylpropan-2-yl)piperidin-1-yl)((R)-1λ^2-pyrrolidin-2-yl)methanone] |
| – | – | 0.0001 to 10 µM | > 10 µM | – | – | CC(C)(C1CCN(C(=O)[C@H]2CCNC2)CC1)[C@H](O)c1cc(Cl)cc2cn[nH]c12 [Compound P-0141, (4-((S)-1-(5-chloro-1H-indazol-7-yl)-1-hydroxy-2-methylpropan-2-yl)piperidin-1-yl)((S)-1λ^2-pyrrolidin-3-yl)methanone] |
| – | – | – | – | ≤ 5.00 | – | OC1(c2cc(Cl)cc3cn[nH]c23)CC2(CCC2)C1 |
| – | – | – | – | ≤ 5.00 | 3.70 | OC1(c2cc(Cl)cc3[nH]ncc23)CC2(CCOCC2)C1 |
| – | – | 0.0001 to 10 µM | 0.0001 to 10 µM | – | – | CC(C)(C1CCN(C(=O)[C@@H]2CCCN2)CC1)[C@H](O)c1cc(Cl)cc2cn[nH]c12 [Compound P-0138, (4-((S)-1-(5-chloro-1H-indazol-7-yl)-1-hydroxy-2-methylpropan-2-yl)piperidin-1-yl)((S)-1λ^2-pyrrolidin-2-yl)methanone] |
